From patent publication US11229638B2, “Therapeutic heterocyclic compounds” (Gilead Sciences, Inc., priority 2017, dated 2022)

Molecular target: T1, IDO1 (Homo sapiens, UniProt P14902)
T1 construct: HeLa cells were treated with a test compound in the presence of IFNγ, which induces IDO1 expression; host or cells: H1-HeLa cells, IDO1 induced with IFN-gamma
Assay: Cell-Based (HeLa) Assay for Measurement of IDO1 Inhibition
Details: H1-HeLa cells, IDO1 induced by IFNγ, 48 hour incubation, kynurenine in supernatant (absorbance at 480 nm); geometric mean of a minimum of four determinations
Protocol: Example 509. Cell-Based (HeLa) Assay for Measurement of IDO1 Inhibition
To measure IDO1 inhibition in tissue culture, HeLa cells were treated with a test compound in the presence of IFNγ, which induces IDO1 expression. Following incubation, cell supernatants were assayed for kynurenine levels, an indicator of IDO1 activity.
H1-HeLa cells (ATCC # CRL-1958) were seeded in 384-well plates (Greiner #82051-282) at a volume of 50 µL/well in DMEM (Corning #15-018-CM) supplemented with 10% FBS (Corning #35-011-CV) and 1% P/S/G (Corning #30-009-CL) at a density of 1,250 cells/well and incubated overnight at 37° C., 5% CO2/100% humidity. The following day, the test compounds were added in DMSO (0.5% final) at various concentrations, and IDO1 was inducibly expressed by the addition of 50 uL/well of 50 ng/mL of INFγ (Peprotech #300-02) in cell plating media. As a positive control, 50 uL of the cell plating media without IFNγ was added to several wells. Following a 48 hour incubation, the plates were spun down at 1,200 RPM for 5 min at 10° C. […]
Data in Table 1 were normalized based on positive (−IFNγ) and negative (+IFNγ) controls and EC50 values were calculated from the fit of the dose-response curves to a four-parameter equation. […]

T1 sequence (P14902 whole entry): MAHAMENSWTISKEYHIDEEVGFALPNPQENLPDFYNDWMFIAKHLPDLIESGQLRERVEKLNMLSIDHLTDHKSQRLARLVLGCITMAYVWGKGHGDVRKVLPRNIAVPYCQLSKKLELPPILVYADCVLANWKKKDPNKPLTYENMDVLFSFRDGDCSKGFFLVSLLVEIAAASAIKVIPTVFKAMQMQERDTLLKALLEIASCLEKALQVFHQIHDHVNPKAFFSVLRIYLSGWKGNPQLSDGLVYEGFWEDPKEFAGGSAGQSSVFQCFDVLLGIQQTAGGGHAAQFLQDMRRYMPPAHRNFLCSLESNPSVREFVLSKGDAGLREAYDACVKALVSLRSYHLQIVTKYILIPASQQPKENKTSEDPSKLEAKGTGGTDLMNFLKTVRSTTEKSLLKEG

EC50 [nM] | Compound
29.9 | N-(4-chlorophenyl)-5-(3-(2,3-difluorophenyl)imidazo[1,5-a]pyridin-8-yl)-2-methylnicotinamide [Example 61]
5000 | Cc1ncc(-c2cccn3c(C4CCOC4)ncc23)cc1C(=O)Nc1ccc(F)cc1 (centres unmarked) [Example 76, N-(4-fluorophenyl)-2-methyl-5-(3-(tetrahydrofuran-3-yl)imidazo[1,5-a]pyridin-8-yl)nicotinamide]
